This assay deals with T.b. brucei (strain 427) bloodstream form parasites. The assay is described as follows: T.b. brucei single concentration screen (10 μM). Particulars: Trypanosoma brucei, read-out: T.b.brucei % viability (10 µM).

Consider `Cc1ccc2oc(-c3cc(NC(=O)Cc4ccccc4)ccc3Cl)nc2c1` [MMV676509, Cc1ccc2oc(nc2c1)c3cc(NC(=O)Cc4ccccc4)ccc3Cl], for which the viability at 10 µM worked out at 99%.

Turning to `CN1CCN(S(=O)(=O)c2ccc(-c3ccc4c(Nc5ccc6nn[nH]c6c5)ccnc4c3)cc2)CC1` [MMV687246, CN1CCN(CC1)S(=O)(=O)c2ccc(cc2)c3ccc4c(Nc5ccc6nn[nH]c6c5)ccnc4c3], the viability at 10 µM amounted to 106%. In the case of `Cc1nc(-c2ccccn2)nc(NCCc2ccc(S(C)(=O)=O)cc2)c1Cl` [MMV658993, Cc1nc(nc(NCCc2ccc(cc2)S(=O)(=O)C)c1Cl)c3ccccn3], the viability at 10 µM came out at 102%.

On to `Cn1ccnc1CNCCS(=O)(=O)c1cccc(Nc2ccc(-c3cccc(F)c3)cn2)c1` [MMV688466, Cn1ccnc1CNCCS(=O)(=O)c2cccc(Nc3ccc(cn3)c4cccc(F)c4)c2], for which the viability at 10 µM amounted to 87%.

With `O=C(Nc1ccccc1-c1nc2c(C(=O)O)cccc2o1)c1ccccc1` [MMV676162, OC(=O)c1cccc2oc(nc12)c3ccccc3NC(=O)c4ccccc4], the viability at 10 µM was determined as 101%.

Turning to `COc1ccc(Cl)cc1NC(=O)CN(C)C(=O)c1cnn(-c2ccccc2)n1` [MMV020710, COc1ccc(Cl)cc1NC(=O)CN(C)C(=O)c2cnn(n2)c3ccccc3], the viability at 10 µM stood at 103%. In the case of `CN1CCCN(C(c2ccccc2)c2ccc(Cl)cc2)CC1` (stereo not drawn) [MMV004168, CN1CCCN(CC1)C(c2ccccc2)c3ccc(Cl)cc3], the viability at 10 µM amounted to 55%. Regarding `Cc1cc(OCC(=O)NCc2ccccc2)c2cc(Br)ccc2n1` [MMV687747, Cc1cc(OCC(=O)NCc2ccccc2)c3cc(Br)ccc3n1], the viability at 10 µM amounted to 89%. Turning to `CC(=O)N1CCN(c2ccc(Oc3ccc(Cl)cc3O)cc2)CC1` [MMV688330, CC(=O)N1CCN(CC1)c1ccc(Oc2ccc(Cl)cc2O)cc1], the viability at 10 µM came out at 103%. As to `COc1ccc(-c2onc(C(F)(F)F)c2-c2ccc(Cl)cc2)c(O)c1` [MMV688766, COc1ccc(c(O)c1)c2onc(c2c3ccc(Cl)cc3)C(F)(F)F], the viability at 10 µM is 88%. As for `Nc1ncnc2c1ncn2C[C@@H](O)[C@@H](O)C(=O)O` [MMV689255, Nc1ncnc2c1ncn2C[C@@H](O)[C@@H](O)C(=O)O], the viability at 10 µM stood at 111%.

Turning to `CNC(=O)c1cc(S(=O)(=O)N2CCN(c3ccccn3)CC2)cs1` [MMV020136, CNC(=O)c1cc(cs1)S(=O)(=O)N2CCN(CC2)c3ccccn3], the viability at 10 µM came to 97%. Take `O=C(NC1CCN(c2ccnc3ccccc23)C1)c1cccc(C(F)(F)F)c1` (stereo not drawn) [MMV023388, FC(F)(F)c1cccc(c1)C(=O)NC2CCN(C2)c3ccnc4ccccc34]: the viability at 10 µM was 78%. In the case of `O=C(Nc1cccc(Cl)c1)c1cnc(N2CCN(c3ccncc3)CC2)c(Cl)c1` [MMV024406, Clc1cccc(NC(=O)c2cnc(N3CCN(CC3)c4ccncc4)c(Cl)c2)c1] it was 63%; in that of `CC(C)(C)c1ccc(N[C@@H]2CCCC[C@H]2NC(=O)c2ccco2)cc1` [MMV675969, CC(C)(C)c1ccc(N[C@@H]2CCCC[C@H]2NC(=O)c3occc3)cc1], 114%. As to `Nc1nc2cc(-c3cncc(Oc4ccc(F)cc4)c3)ccc2[nH]1` [Compound 65, Nc1nc2ccc(cc2[nH]1)c3cncc(Oc4ccc(F)cc4)c3], the viability at 10 µM came out at 14%.

In the case of `CCc1ccc([C@@H]2C[C@H](C(F)(F)F)n3ncc(C(=O)NCc4ccc(OC)cc4)c3N2)cc1` [MMV687180, CCc1ccc(cc1)[C@@H]2C[C@@H](n3ncc(C(=O)NCc4ccc(OC)cc4)c3N2)C(F)(F)F], the viability at 10 µM was 57%. The value for `C[C@H](C(N)=O)N1CCCC[C@@H]1c1ccc(OCc2cccc(F)c2)cc1` [MMV676270, C[C@@H](N1CCCC[C@@H]1c2ccc(OCc3cccc(F)c3)cc2)C(=O)N] was 97%; that for `O=C(NC1CCCCC1)N1CCN(Cc2ccc3c(c2)OCO3)CC1` [MMV676444, O=C(NC1CCCCC1)N2CCN(Cc3ccc4OCOc4c3)CC2] was 109%; that for `Cc1cc(Cl)ccc1NC(=O)CCc1ccc(S(=O)(=O)NCC(C)C)cc1` [MMV161996, CC(C)CNS(=O)(=O)c1ccc(CCC(=O)Nc2ccc(Cl)cc2C)cc1] was 97%.

Take `CC(C)(C)c1cc(C(=O)N2CCN(c3nccnc3C#N)CC2)n(Cc2ccccc2)n1` [MMV023949, CC(C)(C)c1cc(C(=O)N2CCN(CC2)c3nccnc3C#N)n(Cc4ccccc4)n1]: the viability at 10 µM worked out at 115%. For the compound `c1cncc(NCc2ccc(-c3cc4ccncc4cc3OC3CCNCC3)s2)c1` [MMV023969, C(Nc1cccnc1)c2ccc(s2)c3cc4ccncc4cc3OC5CCNCC5], the viability at 10 µM was found to be 79%. In the case of `CC(=O)NCC1CN(c2ccc(-c3ccc(CO)cc3)c(F)c2)C(=O)O1` (stereo not drawn) [MMV688508, CC(=O)NCC1CN(C(=O)O1)c2ccc(c(F)c2)c3ccc(CO)cc3], the viability at 10 µM worked out at 81%. Regarding `COc1ccc(-c2nnc3ccc(-c4cccc(C(C)C)c4)cn23)cc1OC` [MMV688313, COc1ccc(cc1OC)-c1nnc2ccc(cn12)-c1cccc(c1)C(C)C], the viability at 10 µM amounted to 92%.

On to `Nc1ncc(-c2ccc(C(F)(F)F)nc2)cc1-c1ccc(C(F)(F)F)nc1` [MMV668727, Nc1ncc(cc1c2ccc(nc2)C(F)(F)F)c3ccc(nc3)C(F)(F)F], for which the viability at 10 µM was found to be 75%. As for `Brc1cncc(-c2cc(NCCCn3ccnc3)nc(-c3ccccc3)n2)c1` [MMV661713, Brc1cncc(c1)c2cc(NCCCn3ccnc3)nc(n2)c4ccccc4], the viability at 10 µM stood at 98%. On to `COc1ccc(N(CCc2cccc(C)n2)C(C)=O)cc1` [MMV675995, COc1ccc(cc1)N(CCc2cccc(C)n2)C(=O)C], for which the viability at 10 µM turned out to be 108%. As to `Cc1cc(Nc2ccncc2)n2nc(C)c(-c3ccccc3Cl)c2n1` [MMV016136, Cc1cc(Nc2ccncc2)n3nc(C)c(c4ccccc4Cl)c3n1], the viability at 10 µM worked out at 113%.

In the case of `CC1COC2(CCN(c3nc(=O)c4cc(C(F)(F)F)cc([N+](=O)[O-])c4s3)CC2)O1` (stereo not drawn) [MMV676603, CC1COC2(CCN(CC2)C3=NC(=O)c4cc(cc(c4S3)[N+](=O)[O-])C(F)(F)F)O1], the viability at 10 µM was 82%. `c1ccc(Oc2ccc(-c3cc(CN4CCOCC4)[nH]n3)cc2)cc1` [MMV676161, C(N1CCOCC1)c2cc(n[nH]2)c3ccc(Oc4ccccc4)cc3]: the viability at 10 µM worked out at 43%.

As to `CN(C)CCNC(=O)N1CCCN(c2ncnc3cc(-c4ccccc4)sc23)CC1` [MMV024195, CN(C)CCNC(=O)N1CCCN(CC1)c2ncnc3cc(sc23)c4ccccc4], the viability at 10 µM stood at 79%. `CCc1nc2ccccc2n1CC(O)COc1cc(C)ccc1Cl` (stereo not drawn) [MMV676449, CCc1nc2ccccc2n1CC(O)COc3cc(C)ccc3Cl]: the viability at 10 µM was found to be 83%.

With `Cc1cccc(Cn2ccc(NC(=O)c3ccc4c(c3)OCO4)n2)c1` [MMV676386, Cc1cccc(Cn2ccc(NC(=O)c3ccc4OCOc4c3)n2)c1], the viability at 10 µM was 95%. Consider `N#CCN(CCCCN1CCN(c2ccc(F)cc2)CC1)C(=O)OCc1ccccc1` [MMV675997, Fc1ccc(cc1)N2CCN(CCCCN(CC#N)C(=O)OCc3ccccc3)CC2], for which the viability at 10 µM was 97%.

For `c1coc(CNc2nc(N3CCCCC3)nc3ccccc23)c1` [MMV676401, C(Nc1nc(nc2ccccc12)N3CCCCC3)c4occc4], the viability at 10 µM worked out at 58%. In the case of `Cc1cc(C)c2cc(C(=O)NC3CCCCCCC3)[nH]c2c1` [MMV687146, Cc1cc(C)c2cc([nH]c2c1)C(=O)NC3CCCCCCC3] it was 92%; in that of `CCS(=O)(=O)N(Cc1ccco1)Cc1cc2ccc(C)cc2nc1O` [MMV676398, CCS(=O)(=O)N(Cc1occc1)Cc2cc3ccc(C)cc3nc2O], 86%; in that of `CN1CCN(c2nccc3[nH]c(-c4cccc(F)c4)cc23)CC1` [MMV393144, CN1CCN(CC1)c2nccc3[nH]c(cc23)c4cccc(F)c4], 59%. Consider `COc1cccc2c(C)nc(N=C(N)N)nc12` [MMV000907, COc1cccc2c(C)nc(N=C(N)N)nc12], for which the viability at 10 µM was found to be 79%. In the case of `Cc1[nH]c2cc(F)cc(F)c2c(=O)c1-c1ccc(Oc2ccc(OC(F)(F)F)cc2)cc1` [MMV671636, CC1=C(C(=O)c2c(F)cc(F)cc2N1)c3ccc(Oc4ccc(OC(F)(F)F)cc4)cc3], the viability at 10 µM was found to be 101%. The value for `CCOc1ccccc1C(=O)Nc1cccc(-c2nc3ncccn3c2C)c1` [MMV019790, CCOc1ccccc1C(=O)Nc2cccc(c2)c3nc4ncccn4c3C] was 103%; that for `CNCCC(Oc1ccc(C(F)(F)F)cc1)c1ccccc1` (stereo not drawn) [Compound 33, CNCCC(Oc1ccc(cc1)C(F)(F)F)c2ccccc2] was 2.4%; that for `C[C@H](c1ccc2c(c1)CCCC2)N(C)c1ncc2c(N)nc(N)nc2n1` [MMV690103, C[C@@H](N(C)c1ncc2c(N)nc(N)nc2n1)c3ccc4CCCCc4c3] was 26%. On to `CC(C)(C)n1nc(Cc2cccc3ccccc23)c2c(N)ncnc21` [MMV676599, CC(C)(C)n1nc(Cc2cccc3ccccc23)c4c(N)ncnc14], for which the viability at 10 µM was 87%.

As for `O=C(Nc1cnc2ccccc2c1)c1cccc(-n2cnnn2)c1` [MMV084864, O=C(Nc1cnc2ccccc2c1)c3cccc(c3)n4cnnn4], the viability at 10 µM is 80%. As to `O=C(CCC1CCCCC1)Nc1cccc(-c2nnc(-c3ccco3)o2)c1` [MMV676589, O=C(CCC1CCCCC1)Nc2cccc(c2)c3oc(nn3)c4occc4], the viability at 10 µM came out at 95%.

With `O=C(NCCN1CCCC1)c1cc(NCCCCN2CCC(F)(F)CC2)nc2ccc(Cl)cc12` [MMV667494, FC1(F)CCN(CCCCNc2cc(c3cc(ccc3n2)Cl)C(=O)NCCN2CCCC2)CC1], the viability at 10 µM turned out to be 56%. `CCOc1ccc(OCC(=O)Nc2cc(C)cc(C)c2)cc1` [MMV676470, CCOc1ccc(OCC(=O)Nc2cc(C)cc(C)c2)cc1]: the viability at 10 µM was 75%. Take `CC(=O)Nc1ccc(-c2noc(CC3CCCN(Cc4cccc(F)c4C)C3)n2)cc1` (stereo not drawn) [MMV689061, CC1=C(F)C=CC=C1CN2CCCC(CC3=NC(C4=CC=C(NC(C)=O)C=C4)=NO3)C2]: the viability at 10 µM stood at 92%. In the case of `COc1ccc(Cn2cnc3c(-c4ccco4)nc(Cl)nc32)cc1` [MMV687170, COc1ccc(Cn2cnc3c(nc(Cl)nc23)c4occc4)cc1] it was 97%; in that of `CNC(=O)C1Cc2c([nH]c3cc(Cl)ccc23)C2(CCN(CCc3ccccc3)CC2)N1` (stereo not drawn) [MMV031011, CNC(=O)C1Cc2c([nH]c3cc(Cl)ccc23)C4(CCN(CCc5ccccc5)CC4)N1], 106%.

(Values after paper PMC6301270 (MedChemComm, 2018).)
